Measured values published in patent US20240425479A1, “HALO-SUBSTITUTED AMINO AZA-HETEROARYL COMPOUNDS AS INHIBITORS OF THE HAEMATOPOIETIC PROGENITOR KINASE 1 (HPK1)” (priority 2021, published 2024).

These compounds were tested against T1, Recombinant (1-346) HPK1 (h) (Homo sapiens, UniProt Q92918) (assay: HPK1 human STE kinase enzymatic radiometric assay). Conditions: read-out: HPK1 IC50 nM Range.
T1 construct: Recombinant (1-346) HPK1 (h) is incubated with 8 mM MOPS pH 7.0
T1 sequence (Q92918 1-346): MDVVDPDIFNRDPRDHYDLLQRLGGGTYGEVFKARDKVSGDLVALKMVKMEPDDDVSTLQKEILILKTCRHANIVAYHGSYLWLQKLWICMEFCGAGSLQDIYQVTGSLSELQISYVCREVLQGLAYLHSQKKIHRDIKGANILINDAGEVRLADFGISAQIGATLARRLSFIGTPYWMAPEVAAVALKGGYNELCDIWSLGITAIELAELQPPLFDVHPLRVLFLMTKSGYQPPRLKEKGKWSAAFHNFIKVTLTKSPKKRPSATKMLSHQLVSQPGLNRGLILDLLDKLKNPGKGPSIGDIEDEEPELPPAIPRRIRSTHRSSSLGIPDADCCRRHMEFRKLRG
Assay type: biochemical
Method: (a) HPK1 Human STE Kinase Enzymatic Radiometric Assay
A stock solution of 10 mM of test compound is prepared in DMSO. The compound plate was prepared by 3-fold and 9-point serial dilutions. Recombinant (1-346) HPK1 (h) is incubated with 8 mM MOPS pH 7.0, 0.2 mM EDTA, 0.33 mg/mL myelin basic protein, 10 mM MgAcetate and [gamma-33P]-ATP (specific activity and concentration as required). The reaction is initiated by the addition of the Mg/ATP mix. After incubation for 40 minutes at RT, the reaction is stopped by the addition of phosphoric acid to a concentration of 0.5%, 10 μL of the reaction is then spotted onto a P30 filtermat and washed four times for 4 minutes in 0.425% phosphoric acid and once in methanol prior to drying and scintillation counting. For more details of kinase assay protocols, see: Gao, Y. et. al.; Biochem J.451 (2): 313-328, 2013.

Compound | IC50
Cc1cc2cc(-c3nc(-c4ccc(N5CCN(C(C)C)CC5)cc4)c(F)nc3N)c(F)cc2c(=O)[nH]1 [Example I-182, 6-(3-amino-5-fluoro-6-(4-(4-isopropylpiperazin-1-yl)phenyl)pyrazin-2-yl)-7-fluoro-3-methylisoquinolin-1(2H)-one] | 0.1 to 10 nM
COC1CN(Cc2cc(-c3nc(-c4ccc5c(c4)CCNC5=O)c(N)nc3F)ccc2C2CCOCC2)C1 [Example I-193, 6-(3-amino-5-fluoro-6-(3-((3-methoxyazetidin-1-yl)methyl)-4-(tetrahydro-2H-pyran-4-yl)phenyl)pyrazin-2-yl)-3,4-dihydroisoquinolin-1(2H)-one] | 0.1 to 10 nM
C[C@H]1CN(c2ccc(-c3nc(-c4ccc5c(c4)CCNC5=O)c(N)nc3F)cc2CN2CCC2)CCO1 [Example I-214, (S)-6-(3-amino-6-(3-(azetidin-1-ylmethyl)-4-(2-methylmorpholino)phenyl)-5-fluoropyrazin-2-yl)-3,4-dihydroisoquinolin-1(2H)-one] | 0.1 to 10 nM
Cc1[nH]c(=O)c2ccc(-c3nc(-c4ccc(N5CCN(C(C)C)CC5)cc4)c(F)nc3N)cc2c1Cl [Example I-43, 6-(3-amino-5-fluoro-6-(4-(4-isopropylpiperazin-1-yl)phenyl)pyrazin-2-yl)-4-chloro-3-methylisoquinolin-1(2H)-one] | 0.1 to 10 nM
Nc1nc(F)c(-c2ccc(N3CCN(CCCC(F)F)CC3)cc2)nc1-c1ccc2c(c1)CCNC2=O [Example I-68, 6-(3-amino-6-(4-(4-(4,4-difluorobutyl)piperazin-1-yl)phenyl)-5-fluoropyrazin-2-yl)-3,4-dihydroisoquinolin-1(2H)-one] | 0.1 to 10 nM
Cc1nc2cc(-c3nc(-c4ccc(N5CCN(CC6CC6)CC5)cc4)c(F)nc3N)ccc2c(=O)[nH]1 [Example I-79, 7-(3-amino-6-(4-(4-(cyclopropylmethyl)piperazin-1-yl)phenyl)-5-fluoropyrazin-2-yl)-2-methylquinazolin-4(3H)-one] | 101 to 1000 nM
COc1c[nH]c(=O)c2ccc(-c3nc(-c4ccc(N5CCN(C(C)C)CC5)cc4)c(F)nc3N)cc12 [Example I-119, 6-(3-amino-5-fluoro-6-(4-(4-isopropylpiperazin-1-yl)phenyl)pyrazin-2-yl)-4-methoxyisoquinolin-1(2H)-one] | 11 to 100 nM
COC1CCN(Cc2cc(-c3nc(-c4cc5c(cc4F)C(=O)NCC5)c(N)nc3F)ccc2N2CCSCC2)CC1 [Example I-127, 6-(3-amino-5-fluoro-6-(3-((4-methoxypiperidin-1-yl)methyl)-4-thiomorpholinophenyl)pyrazin-2-yl)-7-fluoro-3,4-dihydroisoquinolin-1(2H)-one] | 11 to 100 nM
C[C@H]1CN(c2ccc(-c3nc(-c4cc5c(cc4F)C(=O)NCC5)c(N)nc3F)cc2CN2CCC2)CCO1 [Example I-215, (S)-6-(3-amino-6-(3-(azetidin-1-ylmethyl)-4-(2-methylmorpholino)phenyl)-5-fluoropyrazin-2-yl)-7-fluoro-3,4-dihydroisoquinolin-1(2H)-one] | 0.1 to 10 nM
CCN(C)Cc1cc(-c2nc(-c3ccc4c(c3)CCNC4=O)c(N)nc2F)ccc1C1CCOCC1 [Example I-163, 6-(3-amino-6-(3-((ethyl(methyl)amino)methyl)-4-(tetrahydro-2H-pyran-4-yl)phenyl)-5-fluoropyrazin-2-yl)-3,4-dihydroisoquinolin-1(2H)-one] | 0.1 to 10 nM
Cc1nc2cc(-c3nc(-c4ccc(N5CC6(CN(C)CCO6)C5)cc4)c(F)nc3N)ccc2c(=O)[nH]1 [Example I-130, 7-(3-amino-5-fluoro-6-(4-(8-methyl-5-oxa-2,8-diazaspiro[3.5]nonan-2-yl)phenyl)pyrazin-2-yl)-2-methylquinazolin-4(3H)-one] | 101 to 1000 nM
Cc1[nH]c(=O)c2c(F)cc(-c3nc(-c4ccc(N5CCOCC5)c(CN(C)C)c4)c(F)nc3N)cc2c1Cl [Example I-109, 6-(3-amino-6-(3-((dimethylamino)methyl)-4-morpholinophenyl)-5-fluoropyrazin-2-yl)-4-chloro-8-fluoro-3-methylisoquinolin-1(2H)-one] | 0.1 to 10 nM
C[C@@H]1CN(c2ccc(-c3nc(-c4ccc5c(c4)CCNC5=O)c(N)nc3F)cc2CN(C)C)C[C@H](C)O1 [Example I-198, 6-(3-amino-6-(3-((dimethylamino)methyl)-4-((2R,6S)-2,6-dimethylmorpholino)phenyl)-5-fluoropyrazin-2-yl)-3,4-dihydroisoquinolin-1(2H)-one] | 0.1 to 10 nM
CN(C)Cc1cc(-c2nc(-c3ccc4c(c3)CCNC4=O)c(N)nc2F)ccc1N1CCSCC1 [Example I-128, 6-(3-amino-6-(3-((dimethylamino)methyl)-4-thiomorpholinophenyl)-5-fluoropyrazin-2-yl)-3,4-dihydroisoquinolin-1(2H)-one] | 0.1 to 10 nM
COCCN(C)Cc1cc(-c2nc(-c3ccc4c(c3)CCNC4=O)c(N)nc2F)ccc1C1CCOCC1 [Example I-174, 6-(3-amino-5-fluoro-6-(3-(((2-methoxyethyl)(methyl)amino)methyl)-4-(tetrahydro-2H-pyran-4-yl)phenyl)pyrazin-2-yl)-3,4-dihydroisoquinolin-1(2H)-one] | 0.1 to 10 nM
C[C@@H]1CN(c2ccc(-c3nc(-c4cc(F)c5c(c4)CCNC5=O)c(N)nc3F)cc2CN(C)C)C[C@H](C)O1 [Example I-197, 6-(3-amino-6-(3-((dimethylamino)methyl)-4-((2R,6S)-2,6-dimethylmorpholino)phenyl)-5-fluoropyrazin-2-yl)-8-fluoro-3,4-dihydroisoquinolin-1(2H)-one] | 0.1 to 10 nM

Next, values leading:

IC50 | Compound
11 to 100 nM | CCN(C)Cc1cc(-c2nc(-c3ccc4c(=O)[nH]cc(F)c4c3)c(N)nc2F)ccc1C1=CCOCC1 [Example I-282, 6-(3-amino-6-(4-(3,6-dihydro-2H-pyran-4-yl)-3-((ethyl(methyl)amino)methyl)phenyl)-5-fluoropyrazin-2-yl)-4-fluoroisoquinolin-1(2H)-one]
11 to 100 nM | Cc1nc2cc(-c3nc(-c4ccc(C5CCOCC5)c(CN5CCC[C@H]5C)c4)c(F)nc3N)cc(F)c2c(=O)[nH]1 [Example I-217, (R)-7-(3-amino-5-fluoro-6-(3-((2-methylpyrrolidin-1-yl)methyl)-4-(tetrahydro-2H-pyran-4-yl)phenyl)pyrazin-2-yl)-5-fluoro-2-methylquinazolin-4(3H)-one]
11 to 100 nM | CN(C)Cc1cc(-c2nc(-c3ccc4c(=O)[nH]cc(F)c4c3)c(N)nc2F)ccc1F [Example I-276, 6-(3-amino-6-(3-((dimethylamino)methyl)-4-fluorophenyl)-5-fluoropyrazin-2-yl)-4-fluoroisoquinolin-1(2H)-one]
11 to 100 nM | CCN(C)Cc1cc(-c2nc(-c3ccc4c(c3)C(F)(F)CNC4=O)c(N)nc2F)ccc1C1=CCOCC1 [Example I-225, 6-(3-amino-6-(4-(3,6-dihydro-2H-pyran-4-yl)-3-((ethyl(methyl)amino)methyl)phenyl)-5-fluoropyrazin-2-yl)-4,4-difluoro-3,4-dihydroisoquinolin-1(2H)-one]
11 to 100 nM | CN(C)Cc1cc(-c2nc(-c3ccc4c(=O)[nH]cc(F)c4c3)c(N)nc2F)c(F)c(F)c1N1CCOCC1 [Example I-263, 6-(3-amino-6-(5-((dimethylamino)methyl)-2,3-difluoro-4-morpholinophenyl)-5-fluoropyrazin-2-yl)-4-fluoroisoquinolin-1(2H)-one]
101 to 1000 nM | CC(C)N1CCN(c2ccc(-c3nc(-c4ccc5c(c4)C4(CC4)NCC5=O)c(N)nc3F)cc2)CC1 [Example I-260, 7′-(3-amino-5-fluoro-6-(4-(4-isopropylpiperazin-1-yl)phenyl)pyrazin-2-yl)-2′,3′-dihydro-4′H-spiro[cyclopropane-1,1′-isoquinolin]-4′-one]
101 to 1000 nM | CN(C)Cc1cc(-c2nc(-c3ccc4c(c3)CCNC4=O)c(N)nc2F)c(F)cc1N1CCOCC1 [Example I-258, 6-(3-amino-6-(5-((dimethylamino)methyl)-2-fluoro-4-morpholinophenyl)-5-fluoropyrazin-2-yl)-3,4-dihydroisoquinolin-1(2H)-one]
11 to 100 nM | CN(C)Cc1cc(-c2nc(-c3cc4c(cc3F)C(=O)NCC4)c(N)nc2F)ccc1F [Example I-273, 6-(3-amino-6-(3-((dimethylamino)methyl)-4-fluorophenyl)-5-fluoropyrazin-2-yl)-7-fluoro-3,4-dihydroisoquinolin-1(2H)-one]
11 to 100 nM | CN(C)Cc1cccc(-c2nc(-c3ccc4c(=O)[nH]cc(F)c4c3)c(N)nc2F)c1 [Example I-281, 6-(3-amino-6-(3-((dimethylamino)methyl)phenyl)-5-fluoropyrazin-2-yl)-4-fluoroisoquinolin-1(2H)-one]
0.1 to 10 nM | COc1ccc(-c2nc(-c3ccc4c(=O)[nH]cc(F)c4c3)c(N)nc2F)cc1C(C)N(C)C (centres unmarked) [Example I-291, 6-(3-amino-6-(3-(1-(dimethylamino)ethyl)-4-methoxyphenyl)-5-fluoropyrazin-2-yl)-4-fluoroisoquinolin-1(2H)-one]
